This is an account of results in ChEMBL document CHEMBL1201862, “PubChem BioAssay data set” (2004).

SMILES strings stand for the structures.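 Values below derive from 48-hour exposures of cells grown in 96-well plates, with endpoints linearly interpolated between the two concentrations bracketing the appropriate inhibition level. GI50 is the concentration that inhibits growth by half.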 The source made the active and inactive calls. Cut-off read from the data, not from the text of the source: active = GI50 up to about 1.1 µM and inactive = higher.

Holding throughout (assay): DTP human tumour cell line panel, 48 h
Experiment [1] concerns CAKI-1.
The subject of experiment [2] is BT-549.
For experiment [3], the system named is ACHN.
Experiment [4] has as its system UO-31.
In experiment [5] the test system is RPMI-8226.
Experiment [6] deals with T47D.
Experiment [7] deals with UACC-257.
Experiment [8] deals with PC-3.
In experiment [9] the test system is LOX IMVI.
Experiment [10] concerns KM12.
Experiment [11] deals with M14.
Experiment [12] deals with HCT-15.
Experiment [13] deals with HL-60.
The test system of experiment [14] is RXF 393.
For experiment [15], the system named is SF-295.
In experiment [16] the test system is 786-0.
Experiment [17] has as its system MOLT-4.
For experiment [18], the system named is OVCAR-8.
Experiment [19] has as its system NCI-H226.
Experiment [20] has as its system NCI-H522.

Regarding `CCCCCCCCCCCCCC(=O)OCC(CCS(=O)(=O)O[C@H]1CC[C@@]2(C)C(=CC[C@@H]3C2CC[C@]2(C)C(=O)CCC32)C1)OC(=O)CCCCCCCCCCCCC` (stereo not given in full), the GI50 in [1], in [2], in experiment [3], in experiment [4], in experiment [5] and in experiment [6] was > 100 µM (inactive) in each case. Besides, the GI50 in [7] was > 100 µM (inactive); in experiment [8] it was > 100 µM (inactive); in [9], > 100 µM (inactive); in [10] it was > 100 µM (inactive); in experiment [11] it was > 100 µM (inactive); in experiment [12], over 100 µM. The GI50 in experiment [13], in experiment [14], in experiment [15] and in experiment [16] was > 100 µM (inactive) throughout.
Take `COc1ccc2c(c1)/C(=C\c1c(C)nc3n1CCS3)C(=O)N2`: the GI50 is 33.4 µM (inactive) in [1]; 21.1 µM (inactive) in experiment [2]; 40.5 µM (inactive) in experiment [3]; 32.4 µM (inactive) in experiment [17]; 34.3 µM (inactive) in experiment [4]; 37 µM (inactive) in [18]. Also, the GI50 in experiment [5] is 34.5 µM (inactive); in experiment [6], 27.7 µM (inactive); in experiment [7] it was 47.6 µM (inactive); in experiment [8], 16.3 µM (inactive); in experiment [9], 26.5 µM (inactive); in [10], 6.34 µM (inactive). Moreover, the GI50 is 23 µM (inactive) in experiment [11]; 9.4 µM in experiment [12]; 15.6 µM (inactive) in experiment [13]; 40.7 µM (inactive) in experiment [14]; 16.4 µM (inactive) in [15]; 35.2 µM (inactive) in experiment [16].
Regarding `CN(C)c1ccc(/C=C2\C[C@H]3[C@@H]4CCc5cc(OCCN6CCCC6)ccc5[C@H]4CC[C@]3(C)C2=O)cc1`, the GI50 in [1] is 1.45 µM (inactive); in experiment [2], 3.39 µM (inactive); in [3], 1.73 µM (inactive); in experiment [17], 1.31 µM (inactive); in experiment [4] it was 1.54 µM (inactive); in experiment [19] it was 1.82 µM (inactive). Moreover, the GI50 in experiment [5] is 1.75 µM (inactive); in [6], 1.77 µM (inactive); in [7], 2.21 µM (inactive); in experiment [8], 1.78 µM (inactive); in experiment [10], 1.74 µM (inactive); in experiment [12] it was 1.26 µM. For the same compound, the GI50 is 1.57 µM (inactive) in [14], 1.86 µM (inactive) in experiment [15] and 1.32 µM (inactive) in [16].
As for `Sc1cnnc2ccc(Br)cc12`, the GI50 in experiment [1] was 73.1 µM (inactive); in experiment [2], 37.3 µM (inactive); in experiment [3], 28.5 µM (inactive); in [20], 28 µM (inactive); in experiment [17] it was 40.2 µM (inactive); in experiment [4], 34.9 µM (inactive). In addition, the GI50 in experiment [18] was 59.2 µM (inactive); in experiment [19], 49.3 µM (inactive); in [5] it was 69 µM (inactive); in [6] it was 51.9 µM (inactive); in experiment [7] it was 29.4 µM (inactive); in [9], 46 µM (inactive). The GI50 was 50.4 µM (inactive) in experiment [10]; 61 µM (inactive) in experiment [11]; 78.3 µM in experiment [12]; 36.8 µM (inactive) in [13]; 22.7 µM (inactive) in [14]; 34 µM (inactive) in experiment [15]. Also, in experiment [16], the GI50 was > 100 µM (inactive).
Turning to `C#CCNCC(=O)O`, the GI50 in experiment [1], in experiment [2], in experiment [3], in [20], in experiment [17] and in experiment [4] was > 100 µM (inactive) each time. Further, the GI50 in experiment [18], in experiment [19], in experiment [5], in experiment [6], in experiment [7] and in experiment [8] was > 100 µM (inactive) each time. The GI50 in experiment [10] is > 100 µM (inactive); in [11], > 100 µM (inactive); in [12], over 100 µM; in experiment [14], > 100 µM (inactive); in [15], > 100 µM (inactive); in experiment [16] it was > 100 µM (inactive).
In the case of `COc1ccc(-n2cnc3c(NCC(=O)O)ncnc32)cc1`, the GI50 in experiment [1], in experiment [2], in [3], in experiment [20], in [17] and in experiment [4] was > 100 µM (inactive) throughout. Moreover, the GI50 in experiment [18], in experiment [19], in experiment [5], in [6], in experiment [7] and in experiment [8] was > 100 µM (inactive) throughout. The GI50 in [9] was > 100 µM (inactive); in experiment [10], > 100 µM (inactive); in experiment [11], > 100 µM (inactive); in experiment [12] it was over 100 µM; in [15] it was > 100 µM (inactive); in [16], > 100 µM (inactive).
Regarding `O=C(O)CO/N=C1/C(=C2/C(=O)Nc3ccccc32)Nc2ccccc21`, the GI50 in experiment [1] is 25.8 µM (inactive); in experiment [2] it was 51.9 µM (inactive); in experiment [3], > 100 µM (inactive); in experiment [20], 52.6 µM (inactive); in experiment [17] it was 41.4 µM (inactive); in [4], 65 µM (inactive). Also, the GI50 is > 100 µM (inactive) in [18]; > 100 µM (inactive) in [5]; 35.8 µM (inactive) in experiment [6]; > 100 µM (inactive) in experiment [7]; 33.9 µM (inactive) in experiment [8]; 28.4 µM (inactive) in experiment [9]. For the same compound, the GI50 in experiment [10] was 2.99 µM (inactive); in experiment [11], 41.1 µM (inactive); in experiment [12], 35.6 µM; in [13], 64.4 µM (inactive); in experiment [14], 19.5 µM (inactive); in experiment [15], 89.9 µM (inactive). In addition, the GI50 in experiment [16] was 63.4 µM (inactive).
On to `S=C1N(/N=C/c2c3ccccc3cc3ccccc23)C(=N\c2ccccc2)/C(=N/c2ccccc2)N1c1ccccc1`, for which the GI50 in experiment [1], in [2], in experiment [20], in [17], in experiment [4] and in [18] was > 100 µM (inactive) each time. For the same compound, the GI50 in experiment [19], in [5], in experiment [6], in experiment [7], in experiment [8] and in [10] was > 100 µM (inactive) throughout. The GI50 in experiment [11] was > 100 µM (inactive); in experiment [12] it was over 100 µM; in experiment [14] it was > 100 µM (inactive); in experiment [15], > 100 µM (inactive); in experiment [16] it was > 100 µM (inactive).

One may read the GI50 as the concentration giving 50% growth inhibition.
